Values quoted from earlier work as cited in patent US20110178105A1, “CLINICAL BENEFITS OF EICOSAPENTAENOIC ACID IN HUMANS” (E.I. DU PONT DE NEMOURS AND COMPANY, priority 2010, published 2011).

Details: human, in vivo; cited from earlier work

vitamin E
benefit in post-myocardial infarction patients: no benefit
